# Experimental data: PubChem BioAssay (NCI)
#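 Following 48 hours of exposure in 96-well plates, responses at five concentrations were used to interpolate endpoints linearly. TGI is the concentration that stops growth completely.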
# What was measured:
# Assay in all cases: inhibition of tumour cell growth, NCI panel, 48 h
# SF-539 CNS = system: SF-539 CNS
# SF-268 CNS = system: SF-268 CNS
# HOP-62 NSCLC = system: HOP-62 NSCLC
# OVCAR-8 ovarian = system: OVCAR-8 ovarian
# NCI-H226 lung = system: NCI-H226 lung
# SNB-19 CNS = system: SNB-19 CNS
# IGROV1 ovarian = system: IGROV1 ovarian
# CCRF-CEM leukemia = system: CCRF-CEM leukemia
# OVCAR-3 ovarian = system: OVCAR-3 ovarian
# SF-295 CNS = system: SF-295 CNS
# NCI-H23 lung = system: NCI-H23 lung
# HCC-2998 colon = system: HCC-2998 colon
# LOX IMVI melanoma = system: LOX IMVI melanoma
# MCF7 breast = system: MCF7 breast
# BT-549 breast = system: BT-549 breast
# MDA-N = system: MDA-N
# HS 578T breast = system: HS 578T breast
SMILES,TGI (SF-539 CNS) [µM],TGI (SF-268 CNS) [µM],TGI (HOP-62 NSCLC) [µM],TGI (OVCAR-8 ovarian) [µM],TGI (NCI-H226 lung) [µM],TGI (SNB-19 CNS) [µM],TGI (IGROV1 ovarian) [µM],TGI (CCRF-CEM leukemia) [µM],TGI (OVCAR-3 ovarian) [µM],TGI (SF-295 CNS) [µM],TGI (NCI-H23 lung) [µM],TGI (HCC-2998 colon) [µM],TGI (LOX IMVI melanoma) [µM],TGI (MCF7 breast) [µM],TGI (BT-549 breast) [µM],TGI (MDA-N) [µM],TGI (HS 578T breast) [µM]
CCOC(=O)C(Cc1cn(S(=O)(=O)c2ccccc2)c2ccccc12)(NC(C)=O)C(=O)OCC,> 100,> 100,> 100,> 100,93.6,> 100,> 100,72,> 100,> 100,> 100,> 100,,,,,
C=CCc1cc(-c2cc(CC=C)c(O)c(CNCCCl)c2)cc(CNCCCl)c1O,,60.5,33.2,49.4,35.4,> 100,51.4,81.8,43.9,33.8,31.3,31.4,31.6,,,,
NC(=S)Nc1ccc(S(=O)(=O)Nc2ccc(S(N)(=O)=O)cc2)cc1,,,> 100,> 100,> 100,> 100,> 100,> 100,> 100,> 100,> 100,,> 100,> 100,> 100,> 100,
CN(C)/C=N/S(=O)(=O)c1nn2c(C=O)c(-c3ccc(Cl)cc3)nc2s1,5.21,12.6,27.5,3.2,9.86,28.8,,0.701,2.87,28.2,9.81,9.75,2.85,2.68,2.83,,> 22
N#Cc1nc(C2=C(Cl)c3ccccc3OC2)[nH]c1C#N,45.2,> 100,,> 100,,> 100,> 100,> 100,70.9,,69.1,61.8,45.6,70,48,,> 100
N#Cc1c(-c2ccccc2)cc(Nc2cccc(C(F)(F)F)c2)n2c1nc1ccccc12,5.06,11.5,9.81,10.3,4.74,,,,5.58,12.6,3.63,,3.95,,14.1,10.3,
CCCCCCCCCCN(CCCCCCCCCC)C(=O)COc1c2cc(C(C)(C)C)cc1Cc1cc(C(C)(C)C)cc(c1OCC(=O)N(CCCCCCCCCC)CCCCCCCCCC)Cc1cc(C(C)(C)C)cc(c1OCC(=O)N(CCCCCCCCCC)CCCCCCCCCC)Cc1cc(C(C)(C)C)cc(c1OCC(=O)N(CCCCCCCCCC)CCCCCCCCCC)C2,13.7,29.9,31.4,16.6,36.3,22.1,24.8,14.1,29.1,21.7,9.16,22.3,23.7,6.95,,24.9,
C=C1CCC23CC(CC[C@@H]2[C@@]12C[C@@H](c1ccoc1)OC2=O)OC3=O (stereo partly drawn),> 100,> 100,> 100,> 100,> 100,> 100,> 100,> 100,> 100,> 100,> 100,> 100,,,,,
